Test results taken from paper PMC11406361, “Several orphan solute carriers functionally identified as organic cation transporters: Substrates specificity compared with known cation transporters” (The Journal of Biological Chemistry, 2024).

Tests used:
[1] = biological target: T1, SLC35F4 (Homo sapiens, UniProt A4IF30)
T1 sequence (A4IF30 1-521): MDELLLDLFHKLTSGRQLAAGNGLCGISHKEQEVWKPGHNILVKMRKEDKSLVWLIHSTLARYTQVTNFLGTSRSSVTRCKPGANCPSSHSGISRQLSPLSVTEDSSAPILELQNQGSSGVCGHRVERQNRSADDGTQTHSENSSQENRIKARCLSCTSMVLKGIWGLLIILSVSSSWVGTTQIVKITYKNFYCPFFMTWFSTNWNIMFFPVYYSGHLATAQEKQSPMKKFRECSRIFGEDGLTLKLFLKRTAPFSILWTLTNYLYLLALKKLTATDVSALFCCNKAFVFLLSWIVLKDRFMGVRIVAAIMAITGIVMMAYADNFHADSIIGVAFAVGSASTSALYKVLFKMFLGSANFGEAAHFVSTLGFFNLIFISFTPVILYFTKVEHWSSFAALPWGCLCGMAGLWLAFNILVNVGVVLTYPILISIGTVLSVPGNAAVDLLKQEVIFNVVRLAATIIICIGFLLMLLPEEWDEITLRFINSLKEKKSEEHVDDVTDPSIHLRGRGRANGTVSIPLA

[2] = biological target: T2, SLC19A3 (Homo sapiens, UniProt Q9BZV2); test: Uptake ratio screen, SLC19A3-overexpressing HEK293 over empty vector cells; format: cell-based; details: 2.5 μM, 2 min
T2 construct: expressed in transfected cells
T2 sequence (Q9BZV2 whole entry): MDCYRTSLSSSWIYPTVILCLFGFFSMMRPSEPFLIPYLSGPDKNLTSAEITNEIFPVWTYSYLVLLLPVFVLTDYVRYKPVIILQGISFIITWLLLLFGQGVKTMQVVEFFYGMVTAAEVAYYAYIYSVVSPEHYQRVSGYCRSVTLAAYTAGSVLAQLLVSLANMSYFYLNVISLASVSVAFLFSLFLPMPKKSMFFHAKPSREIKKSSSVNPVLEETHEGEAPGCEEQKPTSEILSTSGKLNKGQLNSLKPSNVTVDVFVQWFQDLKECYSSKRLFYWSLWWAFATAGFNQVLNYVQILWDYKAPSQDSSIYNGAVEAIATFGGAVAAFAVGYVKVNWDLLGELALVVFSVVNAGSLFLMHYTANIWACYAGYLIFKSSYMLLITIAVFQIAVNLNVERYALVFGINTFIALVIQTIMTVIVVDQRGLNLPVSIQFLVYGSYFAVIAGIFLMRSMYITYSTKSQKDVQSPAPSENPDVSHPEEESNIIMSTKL
Experimental: (§1) Typically discussed substrates of the proton organic-cation antiporter ([14]) are highlighted in dark green in Figure 1.
In preparation for transport experiments, 24-well plates were pre-coated with poly-D-lysine (Sigma-Aldrich) and 300,000 cells were plated per well and incubated for 48 h. Firstly, the 24-well plate was placed on a heating plate at 37 °C, and the cells were washed with 37 °C HBSS^+ buffer (Hank’s balanced salt solution supplemented with 10 mM Hepes and adjusted to pH 7.4; Thermo Fisher Scientific). The substance-of-interest, which was diluted in 37 °C HBSS^+ to a desired concentration, was added to the cells for exactly 2 min. […] For variations in seeded cell numbers between the cell lines, several wells were lysed in RIPA buffer and used for total protein quantification using a bicinchoninic assay ([74]) and bovine serum albumin as calibration.
The intracellular drug concentrations after transport experiments were analyzed by high-performance liquid chromatography coupled to tandem mass spectrometry analysis. […] After separation, the detection of substances was performed with an API 4000 tandem mass spectrometer (AB SCIEX, https://sciex.com/support/software-support/software-downloads), followed by quantification of results with the Analyst software (AB SCIEX, version 1.6.2). […]

[3] = biological target: T3, SLC35F2 (Homo sapiens, UniProt Q8IXU6); details: human
T3 sequence (Q8IXU6 1-374): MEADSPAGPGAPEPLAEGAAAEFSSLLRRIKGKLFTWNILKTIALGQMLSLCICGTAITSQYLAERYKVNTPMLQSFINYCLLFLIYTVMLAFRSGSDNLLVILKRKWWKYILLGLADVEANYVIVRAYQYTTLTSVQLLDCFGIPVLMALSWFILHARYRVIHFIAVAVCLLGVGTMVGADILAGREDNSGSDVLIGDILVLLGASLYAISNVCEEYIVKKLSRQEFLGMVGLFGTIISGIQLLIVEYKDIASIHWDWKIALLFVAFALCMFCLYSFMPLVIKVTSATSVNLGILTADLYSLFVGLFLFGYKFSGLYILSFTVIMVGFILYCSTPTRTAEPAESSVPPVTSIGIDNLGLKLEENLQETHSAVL

[4] = biological target: SLC35F3 (Homo sapiens, UniProt Q8IY50)
SLC35F3, sequence (Q8IY50 whole entry): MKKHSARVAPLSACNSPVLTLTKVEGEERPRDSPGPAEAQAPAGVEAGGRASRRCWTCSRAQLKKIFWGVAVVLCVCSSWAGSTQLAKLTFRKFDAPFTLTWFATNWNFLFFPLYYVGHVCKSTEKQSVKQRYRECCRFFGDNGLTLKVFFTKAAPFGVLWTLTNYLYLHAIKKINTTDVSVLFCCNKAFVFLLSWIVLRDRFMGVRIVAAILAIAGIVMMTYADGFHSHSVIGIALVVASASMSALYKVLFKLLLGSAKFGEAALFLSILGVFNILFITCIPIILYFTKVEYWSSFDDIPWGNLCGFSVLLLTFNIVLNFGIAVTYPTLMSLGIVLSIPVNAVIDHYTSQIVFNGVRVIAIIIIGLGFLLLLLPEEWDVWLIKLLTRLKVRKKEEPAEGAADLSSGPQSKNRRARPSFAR

[5] = biological target: T4, SLC35F5 (Homo sapiens, UniProt Q8WV83); test: Uptake ratio screen, SLC35F5-overexpressing HEK293 over empty vector cells; format: cell-based; design: by amplifying the entire gene-of-interest within the HEK293 genome via a long-range PCR; details: 2.5 μM, 2 min
T4 sequence (Q8WV83 1-523): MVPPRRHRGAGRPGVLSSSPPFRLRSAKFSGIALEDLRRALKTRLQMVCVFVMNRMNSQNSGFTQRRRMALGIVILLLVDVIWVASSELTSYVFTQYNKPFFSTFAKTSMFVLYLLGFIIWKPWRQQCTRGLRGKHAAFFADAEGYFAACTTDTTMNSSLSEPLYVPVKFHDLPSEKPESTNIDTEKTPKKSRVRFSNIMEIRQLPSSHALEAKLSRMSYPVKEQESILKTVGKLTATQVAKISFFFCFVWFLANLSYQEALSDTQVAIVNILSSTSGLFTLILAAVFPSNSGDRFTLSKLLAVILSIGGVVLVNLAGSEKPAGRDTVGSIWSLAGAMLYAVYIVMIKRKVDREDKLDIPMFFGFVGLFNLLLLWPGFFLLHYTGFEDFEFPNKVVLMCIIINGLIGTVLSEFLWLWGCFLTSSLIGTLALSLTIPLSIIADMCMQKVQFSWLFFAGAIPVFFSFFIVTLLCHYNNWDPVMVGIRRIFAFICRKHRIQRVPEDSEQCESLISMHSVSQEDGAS
Experimental: as §1
(§2) In preparation for transport experiments, 24-well plates were pre-coated with poly-D-lysine (Sigma-Aldrich) and 300,000 cells were plated per well and incubated for 48 h. Firstly, the 24-well plate was placed on a heating plate at 37 °C, and the cells were washed with 37 °C HBSS^+ buffer (Hank’s balanced salt solution supplemented with 10 mM Hepes and adjusted to pH 7.4; Thermo Fisher Scientific). The substance-of-interest, which was diluted in 37 °C HBSS^+ to a desired concentration, was added to the cells for exactly 2 min. […] The uptake was stopped with ice-cold HBSS^+, and the 24-well plate was removed from the heating plate. The cells were washed twice with the cold HBSS^+ before they were lysed for 15 min with 80% (v/v) acetonitrile containing the respective internal standard for mass spectrometry. For variations in seeded cell numbers between the cell lines, several wells were lysed in RIPA buffer and used for total protein quantification using a bicinchoninic assay ([74]) and bovine serum albumin as calibration.
(§3) The intracellular drug concentrations after transport experiments were analyzed by high-performance liquid chromatography coupled to tandem mass spectrometry analysis. The HPLC consisted of a Shimadzu Nexera HPLC System with a SIL-30AC autosampler, a LC-30AD pump, a CTO-20AC column oven, and a CBM-20A controller (Shimadzu). The reverse-phase chromatography of compounds was accomplished with a Brownlee SPP RP-Amide column with 4.6 × 100 mm inner dimensions, a particle size of 2.7 μm, and a preceding Phenomenex C-18 guard column. The mobile phase was composed of an organic additive with acetonitrile:methanol 6:1 (v/v) in total concentrations between 3% and 50% (v/v) and 0.1% (v/v) formic acid in the aqueous component of the eluent. During separation, the column oven was held at 40 °C and the mobile phase was maintained at a flow rate of 300 or 400 μl/min. After separation, the detection of substances was performed with an API 4000 tandem mass spectrometer (AB SCIEX, https://sciex.com/support/software-support/software-downloads), followed by quantification of results with the Analyst software (AB SCIEX, version 1.6.2). The composition of chromatographic conditions, as well as detailed mass spectrometric detection parameters, are listed in Table S5.
(§4) Transport-mediated net uptake was determined as fold-increase of transporter-overexpressing cells over empty vector–transfected control cells.

[6] = biological target: SLC35G4 (Homo sapiens, UniProt P0C7Q5); details: 2.5 μM, 2 min, HEK293
SLC35G4, sequence (P0C7Q5 whole entry): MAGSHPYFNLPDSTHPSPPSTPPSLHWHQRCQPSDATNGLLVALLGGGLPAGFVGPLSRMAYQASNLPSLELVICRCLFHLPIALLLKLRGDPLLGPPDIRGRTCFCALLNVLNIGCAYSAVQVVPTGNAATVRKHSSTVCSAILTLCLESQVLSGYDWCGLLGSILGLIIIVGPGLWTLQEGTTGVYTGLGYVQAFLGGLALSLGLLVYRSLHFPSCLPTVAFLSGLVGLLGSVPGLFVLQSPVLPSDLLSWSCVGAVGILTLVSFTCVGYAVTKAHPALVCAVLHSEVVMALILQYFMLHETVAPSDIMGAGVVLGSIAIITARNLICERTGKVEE
Experimental: as §1, §2, §3, §4

[7] = biological target: SLC35E1 (Homo sapiens, UniProt Q96K37); details: 2.5 μM, 2 min, HEK293
SLC35E1, sequence (Q96K37 whole entry): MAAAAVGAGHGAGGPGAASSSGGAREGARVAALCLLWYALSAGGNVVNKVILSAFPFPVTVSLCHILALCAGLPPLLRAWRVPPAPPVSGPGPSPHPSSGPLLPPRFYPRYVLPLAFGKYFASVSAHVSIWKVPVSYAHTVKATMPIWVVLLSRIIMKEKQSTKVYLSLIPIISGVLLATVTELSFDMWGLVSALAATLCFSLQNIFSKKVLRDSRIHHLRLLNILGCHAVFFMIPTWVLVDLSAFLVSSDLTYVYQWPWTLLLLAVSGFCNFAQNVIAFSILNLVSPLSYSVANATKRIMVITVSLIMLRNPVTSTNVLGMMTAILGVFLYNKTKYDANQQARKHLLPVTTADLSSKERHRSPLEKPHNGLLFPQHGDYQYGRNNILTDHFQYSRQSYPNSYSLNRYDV
Experimental: as §1, §2, §3, §4

[8] = biological target: SLC44A1 (Homo sapiens, UniProt Q8WWI5); details: 2.5 μM, 2 min, HEK293
SLC44A1, sequence (Q8WWI5 whole entry): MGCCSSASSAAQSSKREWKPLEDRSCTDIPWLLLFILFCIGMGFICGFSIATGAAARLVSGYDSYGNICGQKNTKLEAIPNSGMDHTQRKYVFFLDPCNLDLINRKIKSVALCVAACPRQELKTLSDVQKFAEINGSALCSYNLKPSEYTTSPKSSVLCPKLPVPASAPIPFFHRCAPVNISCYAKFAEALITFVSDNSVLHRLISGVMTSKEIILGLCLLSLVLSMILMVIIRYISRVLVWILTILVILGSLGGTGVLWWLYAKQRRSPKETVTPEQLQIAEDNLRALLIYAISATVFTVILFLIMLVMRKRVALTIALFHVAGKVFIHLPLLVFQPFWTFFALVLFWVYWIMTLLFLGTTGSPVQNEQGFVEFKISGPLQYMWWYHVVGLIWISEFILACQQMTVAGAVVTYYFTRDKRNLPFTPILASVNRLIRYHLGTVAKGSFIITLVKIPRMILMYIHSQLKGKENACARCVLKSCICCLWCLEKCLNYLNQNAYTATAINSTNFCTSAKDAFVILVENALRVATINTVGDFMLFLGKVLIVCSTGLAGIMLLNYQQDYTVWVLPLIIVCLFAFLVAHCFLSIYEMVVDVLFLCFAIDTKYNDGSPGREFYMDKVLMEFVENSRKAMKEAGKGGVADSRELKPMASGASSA
Experimental: as §1, §2, §3, §4

[9] = biological target: SLC44A2 (Homo sapiens, UniProt Q8IWA5); details: 2.5 μM, 2 min, HEK293
SLC44A2, sequence (Q8IWA5 whole entry): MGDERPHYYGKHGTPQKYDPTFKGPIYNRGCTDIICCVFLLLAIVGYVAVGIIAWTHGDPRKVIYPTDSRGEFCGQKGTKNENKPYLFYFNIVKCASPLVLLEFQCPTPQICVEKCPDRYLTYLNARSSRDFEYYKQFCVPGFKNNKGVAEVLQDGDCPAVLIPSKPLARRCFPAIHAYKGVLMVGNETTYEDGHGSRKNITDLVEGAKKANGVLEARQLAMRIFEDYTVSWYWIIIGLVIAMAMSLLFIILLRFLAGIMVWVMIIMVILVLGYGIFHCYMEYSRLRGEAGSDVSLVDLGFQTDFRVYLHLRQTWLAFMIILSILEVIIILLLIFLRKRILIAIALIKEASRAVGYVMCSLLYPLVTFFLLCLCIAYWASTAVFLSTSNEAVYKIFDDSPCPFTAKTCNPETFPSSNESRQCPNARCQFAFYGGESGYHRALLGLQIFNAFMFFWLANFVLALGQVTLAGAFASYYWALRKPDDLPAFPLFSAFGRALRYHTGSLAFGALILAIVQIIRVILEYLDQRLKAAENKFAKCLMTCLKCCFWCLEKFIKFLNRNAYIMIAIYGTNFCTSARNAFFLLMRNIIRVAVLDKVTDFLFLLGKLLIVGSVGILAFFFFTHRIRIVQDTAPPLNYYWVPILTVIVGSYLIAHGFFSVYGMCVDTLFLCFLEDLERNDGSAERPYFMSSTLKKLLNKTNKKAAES
Experimental: as §1, §2, §3, §4

Clint (±SEM) [1]: 1.32 (±1.74) μl × mg protein^-1 × min^-1 | Uptake by SLC19A3 (in words) [2]: transports | Clint (±SEM) [3]: 2.48 (±1.47) μl × mg protein^-1 × min^-1 | Clint (±SEM) [4]: 1.21 (±1.36) μl × mg protein^-1 × min^-1 | Uptake by SLC35F5 (in words) [5]: highest uptake rates | Uptake by SLC35G4 (in words) [6]: extensively enhanced the cell uptake | Uptake by SLC35E1 (in words) [7]: significantly enhanced | Uptake by SLC44A1 (CTL1) (in words) [8]: moderate choline uptake | Uptake by SLC44A2 (CTL2) (in words) [9]: moderate choline uptake
Structure (SMILES): C[N+](C)(C)CCO [Choline]
